In ChEMBL document CHEMBL4507326, “Data for DCP probe TP-030-2” (2021):
pIC50, pKi: −log10 of the molar value. Active and inactive are the calls of the source. The rule behind the calls is not given here.

Key:
[1] = biological target: Alpha-2A adrenergic receptor (Homo sapiens, UniProt P08913); assay: GPCRScan assay: inhibition of Alpha2A; parameters: radioligand conc. used [nm] 1.0 – 3.0, parental cells stable MDCK
[2] = biological target: Voltage-dependent N-type calcium channel subunit alpha-1B (Homo sapiens) (UniProt Q00975); assay: Inhibition of Calcium Channel N-Type at 10 µM in the Eurofins-Panlabs radioligand binding assay (Eurofins_assay_216000); details: Rattus norvegicus; Compound concentration 10.0 uM
[3] = biological target: Neuropeptide Y receptor type 1 (Homo sapiens) (UniProt P25929); assay: Inhibition of Neuropeptide Y Y1 at 10 µM in the Eurofins-Panlabs radioligand binding assay (Eurofins_assay_257010); details: Compound concentration 10.0 uM
[4] = biological target: Neuropeptide Y receptor type 2 (Homo sapiens) (UniProt P49146); assay: Inhibition of Neuropeptide Y Y2 at 10 µM in the Eurofins-Panlabs radioligand binding assay (Eurofins_assay_257110); details: Compound concentration 10.0 uM
Rattus norvegicus = species: Rattus norvegicus; assay: Inhibition of Thyroid Hormone at 10 µM in the Eurofins-Panlabs radioligand binding assay (Eurofins_assay_285900); type: protein assay; details: Compound concentration 10.0 uM
[5] = biological target: Receptor-interacting serine/threonine-protein kinase 1 (Mus musculus, UniProt Q60855); assay: TR-FRET (mouse RIPK1)
[6] = biological target: Activin receptor type-1-like (Homo sapiens, UniProt P37023); assay: ALK1(ACL1LGF1) Takeda global kinase panel
[7] = biological target: Serine/threonine-protein kinase MRCK alpha (Homo sapiens, UniProt Q5VT25); assay: MRCKalpha(CD4ALGY1) Takeda global kinase panel
[8] = biological target: Cyclin-dependent kinase 12 (Homo sapiens, UniProt Q9NYV4); assay: CRK7(CD12PHS1) Takeda global kinase panel
[9] = biological target: Cyclin-dependent kinase 5 (Homo sapiens, UniProt Q00535); assay: CDK5(CDK5CGS1) Takeda global kinase panel
Sequence of Cyclin-dependent kinase 5 (Q00535 whole entry, canonical isoform): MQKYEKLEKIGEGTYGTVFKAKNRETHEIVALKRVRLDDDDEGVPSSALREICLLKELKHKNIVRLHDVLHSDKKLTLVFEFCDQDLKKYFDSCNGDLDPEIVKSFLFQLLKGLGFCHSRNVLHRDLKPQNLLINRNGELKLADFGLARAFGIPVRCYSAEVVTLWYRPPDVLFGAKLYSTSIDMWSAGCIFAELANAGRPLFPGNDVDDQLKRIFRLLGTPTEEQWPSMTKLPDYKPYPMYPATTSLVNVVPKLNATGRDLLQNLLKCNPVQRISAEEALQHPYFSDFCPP

[10] = biological target: Casein kinase I isoform delta (Homo sapiens, UniProt P48730); assay: CK1delta(CS1DLGI1) Takeda global kinase panel
[11] = biological target: Casein kinase I isoform epsilon (Homo sapiens, UniProt P49674); assay: CK1epsilon(CS1ELGI5) Takeda global kinase panel
Sequence of Casein kinase I isoform epsilon (P49674 whole entry, canonical isoform): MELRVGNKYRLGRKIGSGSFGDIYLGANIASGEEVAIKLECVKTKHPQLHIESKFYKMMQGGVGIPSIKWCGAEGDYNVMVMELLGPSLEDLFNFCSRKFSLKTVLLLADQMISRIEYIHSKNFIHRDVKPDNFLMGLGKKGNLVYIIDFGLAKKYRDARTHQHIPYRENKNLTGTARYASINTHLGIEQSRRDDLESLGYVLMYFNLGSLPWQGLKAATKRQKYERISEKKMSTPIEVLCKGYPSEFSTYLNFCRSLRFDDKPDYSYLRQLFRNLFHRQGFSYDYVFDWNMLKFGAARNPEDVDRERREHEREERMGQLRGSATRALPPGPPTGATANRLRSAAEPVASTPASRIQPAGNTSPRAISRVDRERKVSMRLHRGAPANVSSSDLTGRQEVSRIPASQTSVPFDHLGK

[12] = biological target: Dual specificity tyrosine-phosphorylation-regulated kinase 4 (Homo sapiens, UniProt Q9NR20); assay: DYRK4(DYR4LHY1) Takeda global kinase panel
Sequence of Dual specificity tyrosine-phosphorylation-regulated kinase 4 (Q9NR20 whole entry): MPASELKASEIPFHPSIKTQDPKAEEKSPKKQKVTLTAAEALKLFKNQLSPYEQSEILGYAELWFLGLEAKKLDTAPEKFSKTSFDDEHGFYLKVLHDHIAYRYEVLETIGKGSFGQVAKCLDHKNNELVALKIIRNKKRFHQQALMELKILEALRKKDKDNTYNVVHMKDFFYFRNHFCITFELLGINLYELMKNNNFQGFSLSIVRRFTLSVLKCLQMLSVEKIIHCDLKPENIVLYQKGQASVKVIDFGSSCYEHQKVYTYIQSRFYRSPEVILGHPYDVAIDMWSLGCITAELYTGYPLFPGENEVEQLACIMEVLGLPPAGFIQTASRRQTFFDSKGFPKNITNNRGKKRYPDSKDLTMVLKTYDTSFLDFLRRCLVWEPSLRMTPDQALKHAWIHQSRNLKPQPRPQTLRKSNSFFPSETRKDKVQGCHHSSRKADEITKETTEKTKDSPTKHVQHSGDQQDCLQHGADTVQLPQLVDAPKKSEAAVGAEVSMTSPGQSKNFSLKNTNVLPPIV

Ephrin type-A receptor 3 = Ephrin type-A receptor 3 (Homo sapiens, UniProt P29320); assay: EphA3(EPA3LGD5) Takeda global kinase panel
Ephrin type-A receptor 7 = Ephrin type-A receptor 7 (Homo sapiens, UniProt Q15375); assay: EphA7(EPA7LGF1) Takeda global kinase panel
[13] = biological target: Tyrosine-protein kinase Fes/Fps (Homo sapiens, UniProt P07332); assay: Fes(FES1LHY1) Takeda global kinase panel
[14] = biological target: Tyrosine-protein kinase Fgr (Homo sapiens, UniProt P09769); assay: Fgr(FGR1LGF1) Takeda global kinase panel
[15] = biological target: Tyrosine-protein kinase FRK (Homo sapiens, UniProt P42685); assay: FRK(FRK1LGF1) Takeda global kinase panel
[16] = biological target: Serine/threonine-protein kinase LATS1 (Homo sapiens, UniProt O95835); assay: LATS1(LAT1LGRJ) Takeda global kinase panel
Sequence of Serine/threonine-protein kinase LATS1 (O95835 whole entry): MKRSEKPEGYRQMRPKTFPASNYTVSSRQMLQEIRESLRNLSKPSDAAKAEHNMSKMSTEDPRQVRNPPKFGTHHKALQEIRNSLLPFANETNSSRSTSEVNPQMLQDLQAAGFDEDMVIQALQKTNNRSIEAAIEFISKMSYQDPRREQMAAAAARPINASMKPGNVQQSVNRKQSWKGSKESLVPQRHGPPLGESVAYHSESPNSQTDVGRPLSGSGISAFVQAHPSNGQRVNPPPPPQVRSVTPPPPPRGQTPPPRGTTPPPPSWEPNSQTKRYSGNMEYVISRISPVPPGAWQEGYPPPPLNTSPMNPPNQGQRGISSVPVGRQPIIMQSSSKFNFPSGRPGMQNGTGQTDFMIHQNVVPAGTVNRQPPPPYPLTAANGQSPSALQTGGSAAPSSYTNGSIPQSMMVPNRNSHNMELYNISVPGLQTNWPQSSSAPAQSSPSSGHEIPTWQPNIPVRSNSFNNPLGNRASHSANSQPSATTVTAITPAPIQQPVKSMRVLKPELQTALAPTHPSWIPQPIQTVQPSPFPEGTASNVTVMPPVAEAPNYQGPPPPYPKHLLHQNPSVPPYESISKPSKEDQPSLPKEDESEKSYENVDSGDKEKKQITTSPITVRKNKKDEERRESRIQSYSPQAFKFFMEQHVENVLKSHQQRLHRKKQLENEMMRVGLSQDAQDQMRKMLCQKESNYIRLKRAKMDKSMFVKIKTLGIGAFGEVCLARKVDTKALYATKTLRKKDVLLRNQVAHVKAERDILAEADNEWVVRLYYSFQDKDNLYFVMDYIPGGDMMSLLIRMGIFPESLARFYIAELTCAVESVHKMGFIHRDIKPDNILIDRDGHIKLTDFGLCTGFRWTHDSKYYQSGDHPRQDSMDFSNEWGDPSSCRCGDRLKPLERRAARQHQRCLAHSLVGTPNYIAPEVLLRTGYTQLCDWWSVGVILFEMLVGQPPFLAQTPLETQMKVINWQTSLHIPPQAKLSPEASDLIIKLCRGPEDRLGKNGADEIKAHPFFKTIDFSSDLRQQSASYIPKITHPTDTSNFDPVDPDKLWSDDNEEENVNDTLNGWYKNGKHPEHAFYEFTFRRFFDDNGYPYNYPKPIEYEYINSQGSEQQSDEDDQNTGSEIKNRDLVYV

[17] = biological target: Serine/threonine-protein kinase MARK1 (Homo sapiens, UniProt Q9P0L2); assay: MARK1(MAR1PHY1) Takeda global kinase panel
[18] = biological target: Serine/threonine-protein kinase greatwall (Homo sapiens, UniProt Q96GX5); assay: MASTL(MASLLGE1) Takeda global kinase panel
[19] = biological target: Serine/threonine-protein kinase Nek1 (Homo sapiens, UniProt Q96PY6); assay: Nek1(NEK1LGY1) Takeda global kinase panel
[20] = biological target: High affinity nerve growth factor receptor (Homo sapiens, UniProt P04629); assay: TRKA(NTR1LGN1) Takeda global kinase panel
[21] = biological target: PAS domain-containing serine/threonine-protein kinase (Homo sapiens, UniProt Q96RG2); assay: PASK(PASKPHY1) Takeda global kinase panel
[22] = biological target: 3-phosphoinositide-dependent protein kinase 1 (Homo sapiens, UniProt O15530); assay: PDK1(PDP1LGA1) Takeda global kinase panel
[23] = biological target: Serine/threonine-protein kinase N2 (Homo sapiens, UniProt Q16513); assay: PKN2 [PRK2(PKN2LGG5)] Takeda global kinase panel
[24] = biological target: cAMP-dependent protein kinase catalytic subunit beta (Homo sapiens, UniProt P22694); assay: PKAbeta(PRCBLGF1) Takeda global kinase panel
[25] = biological target: Protein kinase C epsilon type (Homo sapiens, UniProt Q02156); assay: PKCepsilon(PRKELHY1) Takeda global kinase panel
[26] = biological target: cAMP-dependent protein kinase catalytic subunit PRKX (Homo sapiens, UniProt P51817); assay: PRKX(PRKXLGH5) Takeda global kinase panel
[27] = biological target: Serine/threonine-protein kinase RIO2 (Homo sapiens, UniProt Q9BVS4); assay: RIOK2(RIO2LGF1) Takeda global kinase panel
[28] = biological target: Proto-oncogene tyrosine-protein kinase ROS (Homo sapiens, UniProt P08922); assay: Ros(ROS1PHY1) Takeda global kinase panel
[29] = biological target: Serine/threonine-protein kinase SIK2 (Homo sapiens, UniProt Q9H0K1); assay: QIK(SIK2LGY1) Takeda global kinase panel
Sequence of Serine/threonine-protein kinase SIK2 (Q9H0K1 whole entry): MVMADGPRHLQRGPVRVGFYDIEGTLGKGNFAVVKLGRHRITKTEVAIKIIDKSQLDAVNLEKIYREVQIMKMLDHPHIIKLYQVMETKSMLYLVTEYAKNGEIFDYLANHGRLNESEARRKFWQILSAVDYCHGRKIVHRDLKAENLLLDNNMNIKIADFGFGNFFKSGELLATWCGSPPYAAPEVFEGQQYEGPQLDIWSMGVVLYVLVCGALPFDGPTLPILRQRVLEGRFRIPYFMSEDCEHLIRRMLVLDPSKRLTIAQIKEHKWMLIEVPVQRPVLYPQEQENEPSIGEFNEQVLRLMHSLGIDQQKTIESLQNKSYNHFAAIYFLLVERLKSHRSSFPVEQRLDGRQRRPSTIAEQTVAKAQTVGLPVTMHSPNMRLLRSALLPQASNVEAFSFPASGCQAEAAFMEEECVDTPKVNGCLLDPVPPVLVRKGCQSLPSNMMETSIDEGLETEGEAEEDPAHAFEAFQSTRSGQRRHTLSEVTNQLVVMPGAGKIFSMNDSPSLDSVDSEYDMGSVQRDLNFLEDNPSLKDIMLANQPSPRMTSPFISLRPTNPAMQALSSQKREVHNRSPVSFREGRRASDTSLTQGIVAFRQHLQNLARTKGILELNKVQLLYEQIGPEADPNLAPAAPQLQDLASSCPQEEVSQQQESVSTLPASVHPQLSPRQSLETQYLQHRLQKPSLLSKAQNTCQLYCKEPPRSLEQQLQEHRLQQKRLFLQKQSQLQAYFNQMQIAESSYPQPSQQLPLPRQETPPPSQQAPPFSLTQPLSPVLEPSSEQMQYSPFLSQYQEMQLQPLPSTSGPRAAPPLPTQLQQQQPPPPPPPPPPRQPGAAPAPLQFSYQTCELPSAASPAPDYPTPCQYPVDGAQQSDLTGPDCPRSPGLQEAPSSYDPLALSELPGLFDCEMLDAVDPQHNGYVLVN

[30] = biological target: Tyrosine-protein kinase Srms (Homo sapiens, UniProt Q9H3Y6); assay: Srm(SRMSLGY1) Takeda global kinase panel
[31] = biological target: Serine/threonine-protein kinase TAO2 (Homo sapiens, UniProt Q9UL54); assay: TAO2(TAO2LGF1) Takeda global kinase panel
Sequence of Serine/threonine-protein kinase TAO2 (Q9UL54 whole entry): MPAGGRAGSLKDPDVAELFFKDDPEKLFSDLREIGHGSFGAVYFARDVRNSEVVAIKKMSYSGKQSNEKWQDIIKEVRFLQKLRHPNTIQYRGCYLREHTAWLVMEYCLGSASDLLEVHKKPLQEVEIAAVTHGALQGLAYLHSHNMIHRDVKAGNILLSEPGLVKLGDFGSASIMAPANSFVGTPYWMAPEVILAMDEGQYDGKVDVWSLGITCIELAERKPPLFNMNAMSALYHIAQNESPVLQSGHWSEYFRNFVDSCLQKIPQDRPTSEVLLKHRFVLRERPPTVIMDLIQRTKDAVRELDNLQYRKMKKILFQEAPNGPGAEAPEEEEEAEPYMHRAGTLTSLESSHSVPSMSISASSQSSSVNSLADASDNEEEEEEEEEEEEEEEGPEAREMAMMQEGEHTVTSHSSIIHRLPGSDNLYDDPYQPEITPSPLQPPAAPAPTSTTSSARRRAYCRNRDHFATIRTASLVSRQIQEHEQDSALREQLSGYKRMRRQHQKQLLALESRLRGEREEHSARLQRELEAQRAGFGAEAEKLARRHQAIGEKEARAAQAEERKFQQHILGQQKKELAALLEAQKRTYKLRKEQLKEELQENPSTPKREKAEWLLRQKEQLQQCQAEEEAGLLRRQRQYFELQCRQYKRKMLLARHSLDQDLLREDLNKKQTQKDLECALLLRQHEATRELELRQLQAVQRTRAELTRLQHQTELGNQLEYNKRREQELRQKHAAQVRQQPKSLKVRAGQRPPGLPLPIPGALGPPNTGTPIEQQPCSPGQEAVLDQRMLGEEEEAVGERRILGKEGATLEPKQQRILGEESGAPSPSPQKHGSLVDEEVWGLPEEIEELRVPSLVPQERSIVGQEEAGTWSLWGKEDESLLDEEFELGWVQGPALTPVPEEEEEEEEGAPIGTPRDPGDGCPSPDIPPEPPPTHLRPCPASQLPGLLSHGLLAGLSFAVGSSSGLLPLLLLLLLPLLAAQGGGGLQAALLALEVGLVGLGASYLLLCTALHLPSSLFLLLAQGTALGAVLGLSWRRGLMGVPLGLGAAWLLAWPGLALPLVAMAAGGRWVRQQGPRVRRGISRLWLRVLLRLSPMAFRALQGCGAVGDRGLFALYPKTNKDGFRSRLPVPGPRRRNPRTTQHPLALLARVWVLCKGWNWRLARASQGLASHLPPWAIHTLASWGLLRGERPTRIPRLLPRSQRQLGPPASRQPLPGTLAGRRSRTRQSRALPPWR

[32] = biological target: Serine/threonine-protein kinase VRK2 (Homo sapiens, UniProt Q86Y07); assay: VRK2(VRK2LGRI) Takeda global kinase panel
[33] = biological target: Bromodomain-containing protein 4 (Homo sapiens, UniProt O60885); assay: BRD4(BRD4LGRC) Takeda global kinase panel
[34] = biological target: 5-hydroxytryptamine receptor 1B (Homo sapiens) (UniProt P28222); details: Compound concentration 10.0 uM
[35] = biological target: Mu-type opioid receptor (Homo sapiens) (UniProt P35372); details: Compound concentration 10.0 uM
Sequence of Mu-type opioid receptor (Homo sapiens) (P35372 whole entry): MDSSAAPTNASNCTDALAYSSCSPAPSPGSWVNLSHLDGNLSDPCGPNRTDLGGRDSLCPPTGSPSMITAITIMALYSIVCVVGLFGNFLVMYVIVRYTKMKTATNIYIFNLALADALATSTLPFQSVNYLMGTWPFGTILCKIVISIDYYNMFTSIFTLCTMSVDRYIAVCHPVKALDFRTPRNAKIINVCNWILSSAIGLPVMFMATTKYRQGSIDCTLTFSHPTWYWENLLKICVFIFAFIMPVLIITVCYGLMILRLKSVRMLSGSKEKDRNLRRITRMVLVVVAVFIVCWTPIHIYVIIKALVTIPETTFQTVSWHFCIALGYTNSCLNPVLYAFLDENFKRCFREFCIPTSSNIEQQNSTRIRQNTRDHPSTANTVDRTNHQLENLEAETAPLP

[36] = biological target: Histamine H1 receptor (Homo sapiens) (UniProt P35367); details: Compound concentration 10.0 uM
[37] = biological target: Histamine H2 receptor (Homo sapiens) (UniProt P25021); details: Compound concentration 10.0 uM
[38] = biological target: Muscarinic acetylcholine receptor M4 (Homo sapiens) (UniProt P08173); details: Compound concentration 10.0 uM
[39] = biological target: D(1A) dopamine receptor (Homo sapiens) (UniProt P21728); details: Compound concentration 10.0 uM
[40] = biological target: Endothelin receptor type B (Homo sapiens) (UniProt P24530); details: Compound concentration 10.0 uM
[41] = biological target: Sodium-dependent noradrenaline transporter (Homo sapiens) (UniProt P23975); details: Compound concentration 10.0 uM
[42] = biological target: Glutamate receptor ionotropic, kainate (Rattus norvegicus) (UniProt P22756+Q01812+P42260+P42264+Q63273); details: Compound concentration 10.0 uM

## CN1C(=O)[C@@H](N2CCc3c(nn(Cc4ccccc4)c3Br)C2=O)COc2ccccc21 [TP-030-2]
[1]
  pKi: 5.63
[2]
  inhibition: -1%
[3]
  inhibition: 10%
[4]
  inhibition: -6%
Rattus norvegicus
  inhibition: 4%
[5]
  IC50: 100 nM (active)
[6]
  pIC50: 6.00
[7]
  pIC50: 6.00
[8]
  pIC50: 6.00
[9]
  pIC50: 6.00
[10]
  pIC50: 6.00
[11]
  pIC50: 6.00
[12]
  pIC50: 6.00
Ephrin type-A receptor 3
  pIC50: 6.00
Ephrin type-A receptor 7
  pIC50: 6.00
[13]
  pIC50: 6.00
[14]
  pIC50: 6.00
[15]
  pIC50: 6.00
[16]
  pIC50: 6.00
[17]
  pIC50: 6.00
[18]
  pIC50: 6.00
[19]
  pIC50: 6.00
[20]
  pIC50: 6.00
[21]
  pIC50: 6.00
[22]
  pIC50: 6.00
[23]
  pIC50: 6.00
[24]
  pIC50: 6.00
[25]
  pIC50: 6.00
[26]
  pIC50: 6.00
[27]
  pIC50: 6.00
[28]
  pIC50: 6.00
[29]
  pIC50: 6.00
[30]
  pIC50: 6.00
[31]
  pIC50: 6.00
[32]
  pIC50: 6.00
[33]
  pIC50: 6.00
[34]
  inhibition: -3.35%
[35]
  inhibition: 14.6%
[36]
  inhibition: 9.99%
[37]
  inhibition: 0.52%
[38]
  inhibition: 11.7%
[39]
  inhibition: 9%
[40]
  inhibition: -7%
[41]
  inhibition: 27%
[42]
  inhibition: 5%
